Results reported in patent US5496805A, “Inhibitors of neutral endopeptidase” (priority 1990, dated 1996).
Where a name gives a salt, the structure may show the parent alone.

Each compound was assayed against T1, neutral endopeptidase (Rattus norvegicus, UniProt P07861) (assay: biochemical). Details: enzyme purified from rat kidney; Dns-Gly-Phe-Arg 0.5 mM; pH 7.5; 37°, 30 minutes; inhibitor preincubated 10 minutes.
T1 sequence (P07861 1-750): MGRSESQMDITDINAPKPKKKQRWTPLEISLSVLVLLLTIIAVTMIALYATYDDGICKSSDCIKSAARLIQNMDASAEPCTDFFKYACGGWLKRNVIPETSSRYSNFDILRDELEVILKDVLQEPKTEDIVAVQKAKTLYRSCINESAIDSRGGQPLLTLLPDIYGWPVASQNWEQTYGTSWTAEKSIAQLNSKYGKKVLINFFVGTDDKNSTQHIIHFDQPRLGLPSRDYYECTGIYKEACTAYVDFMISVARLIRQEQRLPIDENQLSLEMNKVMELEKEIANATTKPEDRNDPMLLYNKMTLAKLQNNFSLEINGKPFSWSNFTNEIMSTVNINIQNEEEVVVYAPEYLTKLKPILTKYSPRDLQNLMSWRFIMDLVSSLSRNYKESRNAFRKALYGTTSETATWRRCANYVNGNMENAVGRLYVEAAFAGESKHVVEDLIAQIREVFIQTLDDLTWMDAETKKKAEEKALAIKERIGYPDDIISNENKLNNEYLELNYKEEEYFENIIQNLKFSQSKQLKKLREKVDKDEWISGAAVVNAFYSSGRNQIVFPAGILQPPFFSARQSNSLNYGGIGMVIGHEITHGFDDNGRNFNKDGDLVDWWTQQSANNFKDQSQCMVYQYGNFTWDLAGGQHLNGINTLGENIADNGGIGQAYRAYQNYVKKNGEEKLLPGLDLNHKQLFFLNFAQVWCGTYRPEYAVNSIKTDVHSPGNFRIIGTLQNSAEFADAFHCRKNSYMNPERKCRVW
Procedure: The in vitro neutral endopeptidase activity is determined using a fluorometric assay procedure. The assay is based upon the cleavage of the fluorescent dansylated tripeptide Dns-Gly-Phe-Arg to form Dns-Gly. The latter is extracted from the acidified mixture by ethyl acetate and is strongly fluorescent.
The incubation mixture employed for the assay contains the substance Dns-Gly-Phe-Arg (0.5 mM), tris(hydroxymethyl)aminomethane -HCl buffer (pH 7.5, 50 mM), an enzyme preparation in 0.05% Triton X-100, and water or inhibitor diluted to a final volume of 0.25 ml. The enzyme preparation is purified from rat kidney according to the procedure described by Almenoff et al. in Biochemistry Vol. 22, p. 590-599 (1983). The inhibitor is preincubated for 10 minutes with the enzyme preparation and buffer before the reaction is initiated by the addition of the substrate. Incubation is carried out at 37° for 30 minutes and the reaction is stopped by the addition of 0.25 ml. 1N HCl and extraction of the Dns-Gly product into 1.5 ml. of ethyl acetate. Relative fluorescent intensity (RFI) of the ethyl acetate extract is measured using a Ferrand Spectofluorometer at excitation and emission wavelengths of 342 and 508 nm., respectively, corrected for the RFI of a zero-time control, and compared with assays lacking inhibitor.
Runs are made at different concentrations of test compound and by use of a mathematical model the IC50 is determined. The IC50 is the concentration of test compound that inhibits activity of the enzyme by 50%.

Structure (SMILES)	IC50 [nM]
CC(CS)C(=O)N[C@@H](Cc1ccc(O)c(O)c1)C(=O)O (mixture of isomers) [Example 7, 3-Hydroxy-N-(DL-3-mercapto-2-methyl-1-oxopropyl)-L-tyrosine]	54
O=C(N[C@@H](Cc1c[nH]c2ccccc12)C(=O)O)C(CS)Cc1ccccc1 (mixture of isomers) [Example 28, (±)-N-[2-(Mercaptomethyl)-1-oxo-3-phenylpropyl]-L -tryptophan, 1,1-dimethylethanamine salt (1:1)]	7.8
O=C(CCS)N[C@@H](Cc1ccccc1)C(=O)O [Example 2, N-(3-Mercapto-1-oxopropyl)-L-phenylalanine]	380
CCCC(C)C(CS)C(=O)NCC(=O)O (racemic) [Example 10, (±)-N-[2-(Mercaptomethyl)-3-methyl-1-oxohexyl]-glycine, N-cyclohexylcyclohexanamine salt (1:1)]	510
CC(C)C[C@H](NC(=O)[C@H](C)CS)C(=O)O [Example 40, (S),N-(3-Mercapto-2-methyl-1-oxopropyl)-L-leucine]	190
O=C(N[C@@H](Cc1ccccc1)C(=O)O)C(CS)Cc1ccccc1 (single isomer, unassigned; isomer a) [Example 31, N-[2,(Mercaptomethyl)-1-oxo-3-phenylpropyl]-L-phenylalanine (isomer A)]	5.3
O=C(N[C@@H](Cc1ccc(O)cc1)C(=O)O)C(CS)Cc1ccccc1 (mixture of isomers) [Example 29, (±)-N-[2-(Mercaptomethyl)-1-oxo-3-phenylpropyl]-L -tyrosine]	17
CC[C@H](C)[C@H](NC(=O)[C@H](C)CS)C(=O)O [Example 43, (S)-N-(3-Mercapto-2-methyl-1-oxopropyl)-L-isoleucine]	64
O=C(NCCCC[C@H](NC(=O)C(CS)Cc1ccccc1)C(=O)O)OCc1ccccc1 (mixture of isomers) [Example 26, (±)-N^2-[2-(Mercaptomethyl)-1-oxo-3-phenylpropyl]-N^6-[(phenylmethoxy)carbonyl]-L-lysine, N-cyclohexylcyclohexanamine salt (1:1)]	32
CC(CS)C(=O)N[C@H](C(=O)O)C(C)C (mixture of isomers) [Example 20, (±)-N-(3-Mercapto-2-methyl-1-oxopropyl)-L-valine]	21
C[C@H](CS)C(=O)N[C@H](C(=O)O)[C@@H](C)O [Example 41, (S)-N-(3-Mercapto-2-methyl-1-oxopropyl)-L-threonine]	730
C[C@H](CS)C(=O)N[C@@H](Cc1ccc(O)c(O)c1)C(=O)O [Example 14, 3-Hydroxy-N-(D-3-mercapto-2-methyl-1-oxopropyl)-L-tyrosine]	91
CC(CS)C(=O)N[C@@H](C)C(=O)O (mixture of isomers) [Example 25, (±)-N-(3-Mercapto-2-methyl-1-oxopropyl)-L-alanine, N-cyclohexylcyclohexanamine salt (1:1)]	120
CC(C)CC(CS)C(=O)N[C@@H](CC(C)C)C(=O)O (mixture of isomers) [Example 34, (±)-N-[2-(Mercaptomethyl)-4-methyl-1-oxopentyl]-L-leucine]	12
O=C(O)CCNC(=O)C(CS)Cc1ccccc1 (racemic) [Example 45, (±)-3-[[2-(Mercaptomethyl)-1-oxo-3-phenylpropyl]amino]propanoic acid]	8.9

Results, then the compound that gave them:

IC50 [nM]	Structure (SMILES)
530	CC(C)CC(CS)C(=O)NCC(=O)N[C@@H](CCCN=C(N)N)C(=O)O (mixture of isomers) [Example 55, (±)-N-[N,[2-(Mercaptomethyl)-4-methyl-1-oxopentyl]-glycyl]-L-arginine]
22	O=C(O)CCCCNC(=O)C(CS)Cc1ccccc1 (racemic) [Example 49, (±)-5-[[2-(Mercaptomethyl)-1-oxo-3-phenylpropyl]amino]pentanoic acid]
970	CC(C)C[C@H](NC(=O)[C@H](Cc1ccccc1)NC(=O)[C@@H]1CCCC[C@H]1CS)C(=O)O (mixture of isomers) [Example 67, (trans)-N-[N-[[2-(Mercaptomethyl)cyclohexyl]carbonyl]-L-phenylalanyl]-L-leucine]
12	O=C(O)CC(=O)NC(CS)Cc1ccccc1 (stereo not drawn) [Example 69, 3-[[1-(Mercaptomethyl)-2-phenylethyl]amino]-3-oxo-propanoic acid]
330	CC(C)C[C@H](NC(=O)[C@H](Cc1ccccc1)N[C@@H](Cc1ccccc1)C(=O)O)C(=O)O [Example 80, N-[N-[(S)-l-Carboxy-2-phenylethyl]-L-phenylalanyl]-L-leucine]
1200	CC(C)C[C@H](NC(=O)[C@H](Cc1ccccc1)NC(=O)[C@@H]1CCCC[C@H]1S)C(=O)O (single isomer, unassigned; isomer a) [Example 68, (trans)-N-[N-[(2-Mercaptocyclohexyl)carbonyl]-L-phenylalanyl]-L-leucine (isomer A)]
59	O=C(O)CCCCCNC(=O)C(CS)Cc1ccccc1 (racemic) [Example 50, (±)-6-[[2-(Mercaptomethyl)-1-oxo-3-phenylpropyl]amino]hexanoic acid]
62	C[C@H](NC(=O)[C@H](S)Cc1ccccc1)C(=O)N1CCC[C@H]1C(=O)O [Example 65]
15	N=C(N)NCCC[C@H](NC(=O)CNC(=O)C(CS)Cc1ccccc1)C(=O)O (stereo partly drawn) [Example 82, N-[N-[2-(Mercaptomethyl)-1-oxo-3-phenylpropyl]glycyl]-L-arginine]
31	C[C@H](NC(=O)[C@H](Cc1ccccc1)NC(=O)CS)C(=O)O [Example 60, N-[N-(Mercaptoacetyl)-L-phenylalanyl]-L-alanine]
3.1	O=C(O)CCCCC(=O)NC(CS)Cc1ccccc1 (stereo not drawn) [Example 70, 6-[[1-(Mercaptomethyl)-2-phenylethyl]amino]-6-oxohexanoic acid]
310	CC(C)C[C@H](NC(=O)CS)C(=O)NCC(=O)O [Example 63, N-[N-(Mercaptoacetyl)-L-leucyl]glycine]
1200	CC(C)C[C@@H](NC(=O)[C@@H](Cc1ccccc1)NC(=O)[C@@H]1CCCC[C@H]1C(=O)O)C(=O)O (mixture of isomers) [Example 81, (trans)(R,R)-N-[N-[(2-Carboxycyclohexyl)carbonyl]-L-phenylalanyl]-L-leucine]
220	C[C@H](CS)C(=O)N[C@@H](CC(N)=O)C(=O)O [Example 44, (S)-N^2-(3-Mercapto-2-methyl-1-oxopropyl)-L-asparagine]
95	CC(C)CC(CS)C(=O)NCCC(=O)N[C@@H](CCCNC(=N)N)C(=O)O (mixture of isomers) [Example 58, (±)-N-[N-[2-(Mercaptomethyl)-4-methyl-1-oxopentyl]-β-alanyl]-L-arginine]
2200	CC(C)C[C@H](NC(=O)[C@H](Cc1ccccc1)OP(=O)(O)CCc1ccccc1)C(=O)O [Example 77, N-[(S)-2-[[Hydroxy(2-phenylethy1)phosphinyl]oxy]-1-oxo-3-phenylpropyl]-L-leucine, dilithium salt]
13	O=C(O)CCNC(=O)[C@H](Cc1ccccc1)N[C@@H](Cc1ccccc1)C(=O)O [Example 78, 3-[[N-[(S)-1-Carboxy-2-phenylethyl]-L-phenylalanyl]-amino]propanoic acid]
14	O=C(O)CCCCCCC(=O)NC(CS)Cc1ccccc1 (stereo not drawn) [Example 71, 8-[[1-(MercaDtomethyl)-2-phenylethyl]amino]-8-oxooctanoic acid]
